Laboratory results taken from article PMC6576746, “Rational discovery of dual-indication multi-target PDE/Kinase inhibitor for precision anti-cancer therapy using structural systems pharmacology” (PLoS Computational Biology, 2019).

Columns and labels:
Test in all cases: biochemical
Set-up in all cases: DiscoverX KinomeScan competition binding assay across human kinases; per cent of control at 10 and 100 uM
[1] = molecular target: CDKL1 (Homo sapiens, UniProt Q00532); conditions: competition binding, % of control
CDKL1, sequence (Q00532 whole entry): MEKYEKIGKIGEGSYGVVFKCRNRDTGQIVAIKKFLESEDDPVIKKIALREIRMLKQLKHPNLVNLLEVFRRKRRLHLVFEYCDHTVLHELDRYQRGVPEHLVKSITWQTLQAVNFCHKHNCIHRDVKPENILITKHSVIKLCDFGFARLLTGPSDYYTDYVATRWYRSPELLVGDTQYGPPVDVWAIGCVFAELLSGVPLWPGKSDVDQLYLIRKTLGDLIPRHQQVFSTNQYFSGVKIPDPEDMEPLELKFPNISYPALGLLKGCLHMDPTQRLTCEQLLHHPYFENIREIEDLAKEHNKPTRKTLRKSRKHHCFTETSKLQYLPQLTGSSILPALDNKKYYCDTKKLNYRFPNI
Summary of the method: (§1)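 Binding is expressed as %control, normalised between positive and negative control signals. The compound (levosimendan) was tested at 10 μM and 100 μM in the DiscoverX KinomeScan competition binding format against human kinases.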

[2] = molecular target: EGFR(S752-I759del) (Homo sapiens, UniProt P00533, DEL752-759); conditions: competition binding, % of control; read-out: Percent Control (100 uM Levosimendan)
Summary of the method: as §1

[3] = molecular target: SRPK2 (Homo sapiens, UniProt P78362); conditions: competition binding, % of control; read-out: Percent Control (100 uM Levosimendan)
Summary of the method: as §1

[4] = molecular target: T1, ABL1(F317I)-nonphosphorylated (Homo sapiens, UniProt P00519, F317I); conditions: competition binding, % of control; read-out: Percent Control (100 uM Levosimendan)
T1 construct: nonphosphorylated
Summary of the method: as §1

[5] = molecular target: T2, LOK (Homo sapiens, UniProt O94804); conditions: competition binding, % of control; read-out: Percent Control (100 uM Levosimendan)
T2 construct: gene STK10
Summary of the method: as §1

[6] = molecular target: T3, PIK4CB (Homo sapiens, UniProt Q9UBF8); conditions: competition binding, % of control; read-out: Percent Control (100 uM Levosimendan)
T3 construct: gene PI4KB
Summary of the method: as §1

[7] = molecular target: T4, MINK (Homo sapiens, UniProt Q8N4C8); conditions: competition binding, % of control
T4 construct: gene MINK1
T4 sequence (Q8N4C8 whole entry): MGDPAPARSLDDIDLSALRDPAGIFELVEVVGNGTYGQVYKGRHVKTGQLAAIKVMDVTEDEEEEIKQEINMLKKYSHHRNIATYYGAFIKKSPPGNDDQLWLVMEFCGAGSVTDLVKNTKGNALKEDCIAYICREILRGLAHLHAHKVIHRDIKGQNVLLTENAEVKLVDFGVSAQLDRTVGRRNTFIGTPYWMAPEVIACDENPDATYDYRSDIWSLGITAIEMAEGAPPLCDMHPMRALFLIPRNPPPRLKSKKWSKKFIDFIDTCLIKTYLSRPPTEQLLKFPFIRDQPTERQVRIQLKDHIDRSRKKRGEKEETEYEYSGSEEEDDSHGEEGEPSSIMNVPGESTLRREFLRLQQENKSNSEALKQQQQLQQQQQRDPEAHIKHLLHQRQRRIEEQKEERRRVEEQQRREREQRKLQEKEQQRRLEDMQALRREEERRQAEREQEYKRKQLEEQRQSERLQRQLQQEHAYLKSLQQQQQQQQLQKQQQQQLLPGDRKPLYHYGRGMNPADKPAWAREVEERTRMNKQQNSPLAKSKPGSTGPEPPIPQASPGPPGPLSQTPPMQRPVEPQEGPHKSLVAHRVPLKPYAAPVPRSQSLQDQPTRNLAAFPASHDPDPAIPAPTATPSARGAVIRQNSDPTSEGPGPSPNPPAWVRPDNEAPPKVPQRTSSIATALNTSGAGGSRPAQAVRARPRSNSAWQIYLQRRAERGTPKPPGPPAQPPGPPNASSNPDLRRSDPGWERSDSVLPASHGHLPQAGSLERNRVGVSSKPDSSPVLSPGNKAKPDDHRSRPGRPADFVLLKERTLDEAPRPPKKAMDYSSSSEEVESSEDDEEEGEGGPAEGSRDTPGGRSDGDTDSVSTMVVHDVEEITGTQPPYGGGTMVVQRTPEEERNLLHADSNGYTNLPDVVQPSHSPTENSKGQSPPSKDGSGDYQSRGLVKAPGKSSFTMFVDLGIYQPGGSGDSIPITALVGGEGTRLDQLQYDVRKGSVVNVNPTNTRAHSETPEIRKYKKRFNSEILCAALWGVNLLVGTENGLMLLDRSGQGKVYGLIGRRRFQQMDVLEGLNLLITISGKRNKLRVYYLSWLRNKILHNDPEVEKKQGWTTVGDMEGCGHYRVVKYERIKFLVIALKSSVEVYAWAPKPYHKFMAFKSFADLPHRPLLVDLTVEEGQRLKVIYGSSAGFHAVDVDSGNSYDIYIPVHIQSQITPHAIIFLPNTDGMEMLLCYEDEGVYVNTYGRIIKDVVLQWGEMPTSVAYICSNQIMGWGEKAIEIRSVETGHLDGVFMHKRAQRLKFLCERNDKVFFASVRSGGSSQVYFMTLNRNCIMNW
Summary of the method: as §1

[8] = molecular target: MAPKAPK5 (Homo sapiens, UniProt Q8IW41); conditions: competition binding, % of control; read-out: Percent Control (100 uM Levosimendan)
Summary of the method: as §1

[9] = molecular target: PIK3CA(E545K) (Homo sapiens, UniProt P42336, E545K); conditions: competition binding, % of control; read-out: Percent Control (100 uM Levosimendan)
Summary of the method: as §1

[10] = molecular target: T5, PCTK2 (Homo sapiens, UniProt Q00537); conditions: competition binding, % of control; read-out: Percent Control (100 uM Levosimendan)
T5 construct: gene CDK17
Summary of the method: as §1

[11] = molecular target: TESK1 (Homo sapiens, UniProt Q15569); conditions: competition binding, % of control; read-out: Percent Control (100 uM Levosimendan)
TESK1, sequence (Q15569 whole entry): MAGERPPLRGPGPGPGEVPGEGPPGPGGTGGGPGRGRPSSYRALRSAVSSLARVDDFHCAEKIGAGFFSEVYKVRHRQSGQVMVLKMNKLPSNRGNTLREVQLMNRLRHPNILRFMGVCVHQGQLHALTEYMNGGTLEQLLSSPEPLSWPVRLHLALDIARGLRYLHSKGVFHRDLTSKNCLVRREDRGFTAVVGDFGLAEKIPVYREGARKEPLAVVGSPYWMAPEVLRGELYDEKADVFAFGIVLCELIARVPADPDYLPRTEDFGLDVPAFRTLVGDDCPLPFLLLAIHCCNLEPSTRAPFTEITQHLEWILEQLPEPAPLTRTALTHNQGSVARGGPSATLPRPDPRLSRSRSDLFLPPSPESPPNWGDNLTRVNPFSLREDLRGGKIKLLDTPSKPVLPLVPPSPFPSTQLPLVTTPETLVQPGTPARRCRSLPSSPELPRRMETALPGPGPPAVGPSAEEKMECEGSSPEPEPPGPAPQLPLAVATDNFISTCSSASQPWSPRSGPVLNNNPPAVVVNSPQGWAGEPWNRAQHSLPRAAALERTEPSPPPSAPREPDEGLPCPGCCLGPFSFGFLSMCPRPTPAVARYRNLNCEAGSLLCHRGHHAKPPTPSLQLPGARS
Summary of the method: as §1

[12] = molecular target: T6, HPK1 (Homo sapiens, UniProt Q92918); conditions: competition binding, % of control; read-out: Percent Control (100 uM Levosimendan)
T6 construct: gene MAP4K1
Summary of the method: as §1

[13] = molecular target: CSNK1D (Homo sapiens, UniProt P48730); conditions: competition binding, % of control; read-out: Percent Control (100 uM Levosimendan)
Summary of the method: as §1

[14] = molecular target: T7, ADCK4 (Homo sapiens, UniProt Q96D53); conditions: competition binding, % of control; read-out: Percent Control (100 uM Levosimendan)
T7 construct: gene COQ8B
Summary of the method: as §1

[15] = molecular target: SIK2 (Homo sapiens, UniProt Q9H0K1); conditions: competition binding, % of control; read-out: Percent Control (100 uM Levosimendan)
SIK2, sequence (Q9H0K1 whole entry): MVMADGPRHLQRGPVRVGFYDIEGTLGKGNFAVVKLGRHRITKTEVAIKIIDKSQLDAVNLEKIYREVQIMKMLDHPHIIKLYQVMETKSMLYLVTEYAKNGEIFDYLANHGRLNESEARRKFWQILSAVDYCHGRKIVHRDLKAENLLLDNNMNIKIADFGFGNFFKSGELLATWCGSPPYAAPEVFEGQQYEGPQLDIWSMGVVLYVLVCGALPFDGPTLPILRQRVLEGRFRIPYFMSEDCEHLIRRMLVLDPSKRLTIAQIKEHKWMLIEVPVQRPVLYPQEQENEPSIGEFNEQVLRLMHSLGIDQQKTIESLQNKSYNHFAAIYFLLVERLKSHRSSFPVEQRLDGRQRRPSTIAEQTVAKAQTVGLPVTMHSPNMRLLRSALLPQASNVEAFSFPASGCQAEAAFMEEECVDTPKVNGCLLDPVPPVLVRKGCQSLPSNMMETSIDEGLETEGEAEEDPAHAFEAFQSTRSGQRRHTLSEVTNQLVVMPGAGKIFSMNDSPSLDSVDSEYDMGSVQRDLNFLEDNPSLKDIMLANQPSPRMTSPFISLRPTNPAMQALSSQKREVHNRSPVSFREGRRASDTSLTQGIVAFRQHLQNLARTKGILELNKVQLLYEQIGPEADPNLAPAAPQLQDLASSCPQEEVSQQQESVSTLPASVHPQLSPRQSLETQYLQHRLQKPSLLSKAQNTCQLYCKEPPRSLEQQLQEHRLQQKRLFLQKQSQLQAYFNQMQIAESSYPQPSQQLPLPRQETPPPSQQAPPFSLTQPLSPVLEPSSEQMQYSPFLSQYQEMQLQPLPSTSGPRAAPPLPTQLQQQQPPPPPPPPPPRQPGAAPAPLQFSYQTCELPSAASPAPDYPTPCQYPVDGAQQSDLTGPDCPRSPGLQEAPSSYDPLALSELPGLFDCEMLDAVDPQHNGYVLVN
Summary of the method: as §1

[16] = molecular target: T8, ABL1(H396P)-nonphosphorylated (Homo sapiens, UniProt P00519, H396P); conditions: competition binding, % of control; read-out: Percent Control (100 uM Levosimendan)
T8 construct: nonphosphorylated
Summary of the method: as §1

[17] = molecular target: TNK2 (Homo sapiens, UniProt Q07912); conditions: competition binding, % of control; read-out: Percent Control (100 uM Levosimendan)
TNK2, sequence (Q07912 whole entry): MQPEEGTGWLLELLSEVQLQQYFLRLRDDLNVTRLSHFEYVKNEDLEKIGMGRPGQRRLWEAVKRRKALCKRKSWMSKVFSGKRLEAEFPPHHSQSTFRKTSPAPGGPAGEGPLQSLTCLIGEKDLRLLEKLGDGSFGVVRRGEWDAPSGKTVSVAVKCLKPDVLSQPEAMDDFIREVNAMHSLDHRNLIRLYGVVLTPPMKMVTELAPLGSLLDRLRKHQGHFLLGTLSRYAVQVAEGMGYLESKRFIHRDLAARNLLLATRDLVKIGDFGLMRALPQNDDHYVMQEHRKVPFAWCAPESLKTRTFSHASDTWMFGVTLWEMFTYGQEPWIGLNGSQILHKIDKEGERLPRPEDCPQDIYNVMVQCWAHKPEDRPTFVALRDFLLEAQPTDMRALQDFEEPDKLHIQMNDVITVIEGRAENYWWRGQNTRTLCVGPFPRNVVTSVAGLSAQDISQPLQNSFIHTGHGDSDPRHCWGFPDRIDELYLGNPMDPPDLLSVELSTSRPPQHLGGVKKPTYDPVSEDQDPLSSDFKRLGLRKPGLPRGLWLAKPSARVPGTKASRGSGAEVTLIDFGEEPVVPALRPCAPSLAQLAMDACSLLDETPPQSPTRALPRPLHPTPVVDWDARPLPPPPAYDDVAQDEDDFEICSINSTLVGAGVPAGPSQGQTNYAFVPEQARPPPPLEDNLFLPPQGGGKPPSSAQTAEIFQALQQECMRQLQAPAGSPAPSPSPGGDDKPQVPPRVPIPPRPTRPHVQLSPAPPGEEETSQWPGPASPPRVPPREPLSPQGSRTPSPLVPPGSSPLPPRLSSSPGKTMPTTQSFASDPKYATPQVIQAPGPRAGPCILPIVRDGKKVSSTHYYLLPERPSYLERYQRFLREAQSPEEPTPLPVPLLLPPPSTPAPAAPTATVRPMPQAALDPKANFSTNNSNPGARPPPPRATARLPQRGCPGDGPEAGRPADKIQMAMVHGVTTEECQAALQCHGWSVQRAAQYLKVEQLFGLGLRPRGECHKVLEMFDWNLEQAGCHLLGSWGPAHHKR
Summary of the method: as §1

[18] = molecular target: IRAK1 (Homo sapiens, UniProt P51617); conditions: competition binding, % of control; read-out: Percent Control (100 uM Levosimendan)
IRAK1, sequence (P51617 whole entry): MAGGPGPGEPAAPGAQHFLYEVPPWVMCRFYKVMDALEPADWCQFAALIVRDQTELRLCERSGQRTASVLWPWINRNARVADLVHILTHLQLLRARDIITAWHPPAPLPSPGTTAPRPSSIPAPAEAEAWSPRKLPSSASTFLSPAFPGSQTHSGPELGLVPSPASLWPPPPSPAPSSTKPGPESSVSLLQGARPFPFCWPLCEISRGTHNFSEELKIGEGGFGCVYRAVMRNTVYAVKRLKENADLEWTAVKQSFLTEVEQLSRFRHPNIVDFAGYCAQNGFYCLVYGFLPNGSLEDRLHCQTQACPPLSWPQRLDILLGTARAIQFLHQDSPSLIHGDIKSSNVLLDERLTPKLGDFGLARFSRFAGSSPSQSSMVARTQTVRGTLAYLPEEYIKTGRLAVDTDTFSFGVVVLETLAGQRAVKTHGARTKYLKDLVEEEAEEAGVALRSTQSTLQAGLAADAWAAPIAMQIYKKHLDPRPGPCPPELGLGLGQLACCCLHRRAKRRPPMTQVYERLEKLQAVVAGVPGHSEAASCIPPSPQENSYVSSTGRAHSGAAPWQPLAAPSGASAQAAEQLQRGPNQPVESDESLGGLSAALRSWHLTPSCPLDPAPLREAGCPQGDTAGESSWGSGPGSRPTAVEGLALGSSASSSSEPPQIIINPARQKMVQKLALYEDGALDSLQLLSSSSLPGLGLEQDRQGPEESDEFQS
Summary of the method: as §1

[19] = molecular target: DAPK3 (Homo sapiens, UniProt O43293); conditions: competition binding, % of control; read-out: Percent Control (100 uM Levosimendan)
Summary of the method: as §1

[20] = read-out: Percent Control (10 uM Levosimendan)
[21] = read-out: Percent Control (100 uM Levosimendan)

remaining binding at 10 µM [1, 20]: 88%
remaining binding at 100 µM [1, 21]: 47%
remaining binding at 100 µM [2]: 91%
remaining binding at 100 µM [3]: 100%
remaining binding at 100 µM [4]: 100%
remaining binding at 100 µM [5]: 70%
remaining binding at 100 µM [6]: 100%
remaining binding at 10 µM [7, 20]: 77%
remaining binding at 100 µM [7, 21]: 26%
remaining binding at 100 µM [8]: 100%
remaining binding at 100 µM [9]: 58%
remaining binding at 100 µM [10]: 100%
remaining binding at 100 µM [11]: 96%
remaining binding at 100 µM [12]: 95%
remaining binding at 100 µM [13]: 84%
remaining binding at 100 µM [14]: 100%
remaining binding at 100 µM [15]: 65%
remaining binding at 100 µM [16]: 60%
remaining binding at 100 µM [17]: 86%
remaining binding at 100 µM [18]: 61%
remaining binding at 100 µM [19]: 60%
SMILES: C[C@@H]1CC(=O)NN=C1c1ccc(NN=C(C#N)C#N)cc1 [levosimendan]
